Where a name gives a salt, the structure may show the parent alone.
Experiment: collision cross section in nitrogen (drift tube, single-field); higher = larger gas-phase ion size
[1] = ion type: [M+H], ion source: APCI, ion mode: Positive
[2] = ion type: [M+H], ion source: ESI, ion mode: Positive
[3] = ion type: [M+Na], ion source: ESI, ion mode: Positive
[4] = ion type: [M-H], ion source: ESI, ion mode: Negative
[5] = ion source: APCI, ion mode: Positive, ion type: [M]+ (permanent cation)
[6] = ion source: ESI, ion mode: Positive, ion type: [M]+ (permanent cation)
[7] = ion type: [M+], ion source: APCI, ion mode: Positive
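Further: chemical standards at 10 µM analysed by drift tube IMS-QTOF MS in about 3.95 torr nitrogen, mean of duplicate injections differing ≤1%, mass error below 10 ppm.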

Row | Structure (SMILES) | collision cross section in nitrogen [1] | collision cross section in nitrogen [2] | collision cross section in nitrogen [3] | collision cross section in nitrogen [4] | also measured
1 | CCN(C(=O)c1cc(C)cc(OC[C@H](C)Nc2ccncc2)c1)C(C)C | 186.4 Å² | 186.4 Å² | 194.8 Å² | – | –
2 | O=C1c2ccccc2C(=O)C1C(=O)C(c1ccccc1)c1ccc(Cl)cc1 (configuration not stated) [Chlorophacinone] | – | – | – | 193.2 Å² | –
3 | CCCCCCCOC(=O)c1ccccc1C(=O)OCCCCCCC [Diheptyl phthalate] | – | – | 209.9 Å² | – | –
4 | Nc1ccccc1[N+](=O)[O-] [2-Nitrobenzenamine] | – | – | – | 121.6 Å² | –
5 | CCCCOCCOC(=O)COc1ccc(Cl)cc1Cl [2,4-D-Butotyl] | – | – | 177 Å² | – | –
6 | Cc1ccccc1N=Nc1ccc(NC(=O)c2ccnn2C)c(C)c1 | 189.6 Å² | 189.1 Å² | 200.2 Å² | 190.8 Å² | –
7 | CN(C[C@@H](CC[N+]12CCC(C3CCCCC3)(CC1)CC2)c1ccc(Cl)c(Cl)c1)C(=O)c1cc(C(F)(F)F)cc(C(F)(F)F)c1 | – | – | – | – | collision cross section in nitrogen [5]: 260.7 Å²; collision cross section in nitrogen [6]: 262.3 Å²
8 | Nc1ccc(S(=O)(=O)O)c(N)c1 [2,4-Diaminobenzenesulfonic acid] | – | – | – | 137.9 Å² | –
9 | OC(Cc1ccccc1Cl)(Cn1cncn1)C1(Cl)CC1 (configuration not stated) | 167.3 Å² | 167 Å² | 184.1 Å² | – | –
10 | C[C@H]1O[C@H](O[C@H]2[C@H](O)[C@@H](O)[C@@H](O)[C@H](O)[C@@H]2O)[C@@H](N)C[C@@H]1NC(=N)C(=O)O [Kasugamycin hydrochloride] | – | 165.9 Å² | – | 178 Å² | –
11 | Cc1c(C(=O)NCCO)[n+]([O-])c2ccccc2[n+]1[O-] [Olaquindox] | – | – | – | 161.2 Å² | –
12 | COC(=O)Cc1ccccc1 [Methyl phenylacetate] | – | – | – | 131.4 Å² | –
13 | C#CC(C)(C)NC(=O)c1cc(Cl)cc(Cl)c1 [Propyzamide] | 157.9 Å² | – | – | 157.3 Å² | –
14 | CCOC(=O)C1=NN(c2ccc(Cl)cc2Cl)C(C)(C(=O)OCC)C1 (configuration not stated) [Mefenpyr-diethyl] | – | – | 194.8 Å² | – | –
15 | COCCOCCOCCOC [Triethylene glycol dimethyl ether] | – | – | 138.1 Å² | – | –
16 | Cn1sccc1=O [2-Methyl-3-isothiazolone hydrochloride] | – | 118.5 Å² | – | – | –
17 | O=S(=O)(O)c1ccc2cc(O)c(S(=O)(=O)O)cc2c1 [Disodium 3-hydroxynaphthalene-2,7-disulfonate] | – | – | – | 160.1 Å² | –
18 | Cc1c(-c2cccnc2)c2ccccc2n1CCCCC(=O)O | 176.6 Å² | 176.7 Å² | – | 183.7 Å² | –
19 | Nc1nc2ccc([N+](=O)[O-])cc2s1 [2-Amino-6-nitrobenzothiazole] | 144.1 Å² | 143.6 Å² | – | 131.3 Å² | –
20 | C=C(C)C(=O)OCCOCCOCCOCCOC(=O)C(=C)C [Tetraethyleneglycol dimethacrylate] | 171.2 Å² | – | 176.9 Å² | – | –
21 | O=c1cc(-c2ccccc2)oc2ccc3ccccc3c12 [5,6-Benzoflavone] | 160.8 Å² | 160.2 Å² | 181.8 Å² | – | –
22 | O=C(O)c1ccccc1C(=O)O [Monopotassium phthalate] | – | – | – | 127.6 Å² | –

Row | Structure (SMILES) | collision cross section in nitrogen [1] | collision cross section in nitrogen [2] | collision cross section in nitrogen [3] | collision cross section in nitrogen [4] | also measured
23 | CCCCCCCCCCCCCCCC[n+]1ccccc1 [Cetylpyridinium bromide] | – | – | – | – | collision cross section in nitrogen [5]: 193.4 Å²; collision cross section in nitrogen [6]: 194.3 Å²
24 | CN(C)CCC(c1ccc(Cl)cc1)c1ccccn1 (configuration not stated) [Chlorpheniramine maleate] | 164 Å² | 164.6 Å² | – | – | –
25 | CCCCOC(=O)[C@@H](C)Oc1ccc(Oc2ccc(C(F)(F)F)cn2)cc1 | – | 195.5 Å² | 194.5 Å² | – | –
26 | CC(C)CCCCCCCOC(=O)c1ccccc1C(=O)OCCCCCCCC(C)C | – | – | 225.8 Å² | – | –
27 | C[C@](N)(Cc1ccc(O)c(O)c1)C(=O)O [Methyldopa sesquihydrate] | – | 149.6 Å² | – | – | –
28 | Nc1nc2[nH]cnc2c(=O)[nH]1 [Guanine] | – | 130.3 Å² | – | – | –
29 | CC(C)(c1ccccc1)c1ccc(Nc2ccc(C(C)(C)c3ccccc3)cc2)cc1 | 220.2 Å² | 220.3 Å² | – | 222.7 Å² | collision cross section in nitrogen [7]: 218.2 Å²
30 | O=[N+]([O-])c1cc([N+](=O)[O-])c2ccccc2c1 [1,3-Dinitronaphthalene] | – | – | – | 138.9 Å² | –
31 | O=c1cc(-c2ccccc2)oc2c1ccc1ccccc12 [alpha-Naphthoflavone] | 161.7 Å² | 160.7 Å² | 185.7 Å² | – | –
32 | OCCOCCN1CCN(C2=Nc3ccccc3Sc3ccccc32)CC1 [Quetiapine fumarate] | 192.1 Å² | 192.3 Å² | 188.6 Å² | 183.5 Å² | –
33 | Cc1[nH]nc2c1N=C(c1ccccc1Cl)c1cc([N+](=O)[O-])ccc1N2 | 180.2 Å² | 180 Å² | – | 181.1 Å² | collision cross section in nitrogen [7]: 180.3 Å²
34 | Sc1nc2ccccc2s1 [2-Mercaptobenzothiazole] | – | – | – | 128.2 Å² | –
35 | CNC(=O)ON=CC(C)(C)S(C)=O (configuration not stated) [Aldicarb sulfoxide] | – | – | 147.4 Å² | – | –
36 | O=C(NCO)NCO [1,3-Dimethylolurea] | – | – | 151.7 Å² | – | –
37 | COCC(C)N(C(=O)CCl)c1c(C)csc1C (configuration not stated) [Dimethenamid] | 155.2 Å² | 155.9 Å² | 167.9 Å² | – | –
38 | O=C(O)c1ccc2c(c1)C(=O)OC2=O [Trimellitic anhydride] | – | – | – | 146.5 Å² | –
39 | COc1cc(OC)nc(Sc2cccc(Cl)c2C(=O)O)n1 [Pyrithiobac] | 167.1 Å² | 166.7 Å² | 173.3 Å² | – | –
40 | c1ccc(N=NNc2ccccc2)cc1 [Diazoaminobenzene] | – | 147 Å² | – | – | –
41 | Oc1ccc2ccccc2c1N=Nc1ccccc1 [C.I. Solvent Yellow 14] | 156.9 Å² | – | – | 160.1 Å² | –
42 | c1cc(OCC2CO2)ccc1Cc1ccc(OCC2CO2)cc1 (configuration not stated) [Bis[4-(glycidyloxy)phenyl]methane] | – | – | 169 Å² | – | –
43 | O=C(O)Cc1cc(I)c(Oc2cc(I)c(O)c(I)c2)c(I)c1 [Tetrac] | – | – | – | 203.1 Å² | –
44 | CC(C)(C)c1cc([N+](=O)[O-])cc([N+](=O)[O-])c1O [Dinoterb] | – | – | – | 150.1 Å² | –

Row | Structure (SMILES) | collision cross section in nitrogen [1] | collision cross section in nitrogen [2] | collision cross section in nitrogen [3] | collision cross section in nitrogen [4] | also measured
45 | CCCCN(CCO)CCO [N-Butyldiethanolamine] | 136.3 Å² | 136.7 Å² | – | – | –
46 | O=C(O)C1C(C(=O)O)C2(Cl)C(Cl)=C(Cl)C1(Cl)C2(Cl)Cl (configuration not stated) [Chlorendic acid] | – | – | – | 159 Å² | –
47 | CC(C)N(C(=O)COc1nnc(C(F)(F)F)s1)c1ccc(F)cc1 [Flufenacet] | – | – | 187.5 Å² | – | –
48 | N#Cc1ccc(C2CCCc3cncn32)cc1 (configuration not stated) | 157 Å² | 157.2 Å² | – | – | –
49 | COc1ccc2cc(S(=O)(=O)N[C@H](CC(=O)N[C@H](Cc3ccc(CN4[C@H](C)CCC[C@@H]4C)cc3)C(=O)N(C)C(C)C)c3ccc4c(c3)OCO4)ccc2c1 | 266.1 Å² | 267 Å² | 277.4 Å² | 271.5 Å² | –
50 | O=C(c1ccccc1)c1ccc(O)cc1O [2,4-Dihydroxybenzophenone] | – | – | – | 148.3 Å² | –
51 | Nc1cc([N+](=O)[O-])ccc1C(=O)O [4-Nitroanthranilic acid] | – | – | – | 133.5 Å² | –
52 | CCCCCCCCCCCCCCCC[N+](C)(C)Cc1ccccc1 [Benzalkonium chloride C16 (BAC C16)] | – | – | – | – | collision cross section in nitrogen [5]: 208.9 Å²
53 | N#CCCN(CCO)c1ccccc1 [N-Cyanoethyl-hydroxyethyl aniline] | – | 142.8 Å² | – | – | –
54 | CC(=O)Nc1cc(S(=O)(=O)O)cc2cc(S(=O)(=O)O)c(N=Nc3ccccc3)c(O)c12 [C.I. Acid Red 1] | – | – | – | 210.2 Å² | –
55 | COc1cc(OC)nc(Oc2cccc(Oc3nc(OC)cc(OC)n3)c2C(=O)O)n1 [Bispyribac-sodium] | 198.3 Å² | 198.5 Å² | 198.6 Å² | 187.4 Å² | –
56 | CCN1C(=O)c2ccccc2C1=O [N-Ethylphthalimide] | 133.7 Å² | 135.4 Å² | – | – | –
57 | CCCC(CCC)C(=O)O [Sodium valproate] | – | – | – | 137 Å² | –
58 | CCn1nc(C)c2c1C(=O)NCC(c1ccc(O)cc1)=N2 | 170.8 Å² | 170.3 Å² | – | 172.9 Å² | –
59 | CN(C)C(=O)NC1(c2ccccc2)CCN(CC[C@@]2(c3ccc(F)c(F)c3)CN(C(=O)c3ccccc3)CCO2)CC1 | 241.2 Å² | 241.6 Å² | 243 Å² | – | –
60 | Nc1ccc(S(=O)(=O)Nc2nccs2)cc1 [Sulfathiazole sodium] | 153.3 Å² | 153.6 Å² | 167.2 Å² | 154.1 Å² | –
61 | C=C(C)C(=O)OCCOCCOC(=O)C(=C)C [Di(ethylene glycol) dimethacrylate] | – | – | 159.5 Å² | – | –
62 | CCOP(=S)(OCC)Oc1cc(C)nc(C(C)C)n1 [Diazinon] | 173.5 Å² | 173.7 Å² | – | – | –
63 | O=C(Nc1ccc(F)cc1F)c1cccnc1Oc1cccc(C(F)(F)F)c1 [Diflufenican] | 184.7 Å² | 189.1 Å² | – | 180.6 Å² | –
64 | CC(=O)CC(c1ccccc1)c1c(O)c2ccccc2oc1=O (configuration not stated) [Sodium warfarin] | 167.1 Å² | 167 Å² | 178.6 Å² | 172.5 Å² | –

Reference: the supplement of paper PMC12317010
